# Measured values reported in patent publication US9066965B1, “Purified limonin glucoside for prevention and treatment of chronic diseases” (The United States of America, as represented by the …, priority 2012, dated 2015).
# “And” between values parts separate entries of the source, which are not always exact repeats. Identical values can stand only once.
# Columns and labels:
# [1] = test system: alkaline phosphatase (ALP); conditions: 500 mg/d, 56 days
# Protocol: (§1) CMP performed on serum samples at the chemistry laboratory of University of California Medical Center by using the Beckman Coulter DxC800. GGT and CKMB were determined in the EDTA plasma. GGT activity was determined by using Integra 400 Chemistry Analyzer, Roche Diagnostics. CKMB concentration was determined by using the Multiplex kits from Mesoscale Discovery (Gaithersburg, Md. 20877).
# (§2) SAS PROC MIXED was used to fit the cross-over model (Littell R C, Milliken G A, Stroup W W, Wolfinger R D, Schabenberger O. SAS System for Mixed Models. Cay, N.C.: SAS Institute Inc.; 2006). Transformations were used when appropriate to stabilize the variances among the diets and periods. The fixed effects were order, diet, the interaction and the covariate; and the random effect was subjects within order. The test for order is a test for carry-over effect. […] Comparisons were made between the values at the end of placebo and LG treatments and using the baseline data as a covariate. Results are presented as means±SEM. Differences were considered statistically significant for P value<0.05.
# [2] = test system: complement fraction 3 (C3); test: Serum C3 concentration (Integra 400 Plus); assay type: in vivo, human
# Protocol: Plasma concentrations of epidermal growth factor (EGF), interleukin-13 (IL-13), interleukin-1 receptor antagonist (IL-1Ra), and tumor necrosis factor α (TNF α) were analyzed in EDTA plasma on a Sector Imager 2400 instrument using a multiplex kits from MSD (Meso-Scale Discovery, Gaithersburg, Md.). Concentrations of C reactive protein (CRP), and complement 3 and 4 (C3, C4) were analyzed in serum by using an Integra 400 Plus Chemistry Analyzer, (Roche Diagnostics Corp., Indianapolis, Ind.). Serum amyloid A (SAA), soluble intracellular adhesion molecule-1 (sICAM-1), and soluble vascular cell adhesion molecule-1 (sVCAM-1) were tested in serum on a Sector Imager 2400 instrument using a multiplex kit from MSD (Meso-Scale Discovery, Gaithersburg, Md.).
# Results are presented as means±SEM.
# [3] = test system: gamma glutamyl transferase (GGT); test: Plasma GGT activity (Integra 400); assay type: in vivo, human; conditions: 56 days
# Protocol: as §1, §2
structure (smiles),measurement,setting,value
"CC1(C)O[C@H]2CC(=O)OC[C@]23[C@H]2CC[C@@](C)([C@@H](O[C@@H]4O[C@H](CO)[C@@H](O)[C@H](O)[C@H]4O)c4ccoc4)[C@@]4(O[C@@H]4C(=O)O)[C@]2(C)C(=O)C[C@@H]13 [LG, limonin glucoside]",Alkaline phosphatase,"[1]; serum, End LG, n = 10, mean ± SEM",59.5 ± 3.47 U/L
same,decrease of serum alkaline phosphatase (ALP) activity,"[1]; vs end of placebo treatment, p=0.025",10.1%
same,C3,"[2]; serum, End LG, 500 mg/d, 56 days, n = 10, mean ± SEM",1.18 ± 0.05 mg/mL
same,decrease of serum C3 concentration,"[2]; vs end of placebo treatment, Integra 400 Plus, p=0.055",4.8%
same,GGT,"[3]; EDTA plasma, End LG, 500 mg/d, n = 10, mean ± SEM",25.2 ± 8.0 U/L
same,decrease of plasma activity of GGT,"[3]; vs end of placebo treatment, 0.5 g/d, p=0.001",33.8% and 33%
